Experimental data: EP4772500A1, “NOVEL ISOXAZOLE COMPOUND AS TM4SF5-SPECIFIC INHIBITOR AND USE THEREOF” (Seoul National University R&DB Foundation, priority 2023, dated 2025)

Test system: TM4SF5-non-expressing cells (SNU449Cp)
Assay: Western blotting for signaling factor phosphorylation in TM4SF5-non-expressing cells
Type: cell-based, human
Procedure: Cell extracts were obtained from cells grown to a density of 70-80% without any treatment, or from cells treated with vehicle DMSO or drugs at the given concentrations for 24 hours. For the extract of hepatocytes or liver cancer cells, a lysis buffer (150 mM NaCl, 1% NP-40, 50 mM Tris-HCl, 0.25% sodium deoxycholate, pH 7.4) including a protease inhibitor cocktail (GenDEPOT) was used. In addition, after washing animal liver tissue twice with PBS, SDS, Na3VO4, and protease inhibitor cocktails (GenDEPOT) were added to a lysis buffer [50 mM Tris-HCl, pH 7.4, 1% NP40, 0.25% sodium deoxycholate, 150 mM NaCl, 1 mM EDTA (based on 500 ml)], followed by treatment at 4°C for 15 minutes. After centrifugation at 13,000 rpm at 4°C for 30 minutes, only the supernatant was transferred to a new microcentrifuge tube. After quantification using BCA reagent (Thermo Scientific), a 4 × sample buffer [100% glycerol 4 ml, Tris-HCl, pH 6.8, 2.4 ml, SDS 0.8 g, Bromophenol blue 4 mg, betamercaptoethanol 0.4 ml, H2O 3.1 ml (based on 10 ml)] was added, followed by boiling at 100°C for 5 minutes. After performing SDS-PAGE electrophoresis with the above samples and transferring them to Nitrocellulose Membranes Protran™ nitrocellulose membranes (Whatman), pre-treatment was performed with 5% skim milk for 1 hour. After pre-treatment, primary antibodies of p-FAK(Y861) (SC-16663), p-FAK(Y577) (SC-16665), c-Src (SC-8056), STAT3 (SC-8019), p-AKT 1/2/3(S473) (SC-7985), STATS (SC-835), Laminin γ2 (SC-393225), COL1A1 (SC-28657), CCL5(RANTES) (SC-514019) CCL20(MIP-3α) (SC-517441), SIRT1 (SC-74465), ChREBP (SC-515922), SREBP1 (SC-366513), DGAT1 (SC-271934), DGAT2 (SC-293211), MICA/B (SC-137242), SLAMF7 (SC-390840), α-tublin (SC-5286), β-actin (SC-47778), FUCA (SC-365496) (the above from Santa Cruz Biotech, USA), p-FAK(Y397) (cat # 611723), FAK (cat # 610088), p27 (cat # 610242) (the above from BD Transduction, USA), p-FAK(Y925) (#3284) p-c-Src(Y416) (#2101), p-STAT3(Y705) (#9145), p70S6K1 (#9202), p-p70S6K1(T389) (#9205), p-STAT5(Y694) (#9314), ACC (#3676), FASN (#3189), CPT1A (#12252), p-ACC(S79) (#11818), HA (#3724), PD-L1 (#13684), PD-1 (#86163), p-ERK1/2(T202/Y204) (#9101s), ERK1/2 (#9102s) (the above from Cell Signaling Tech., USA), pS10p27(S10) (ab62364), human SLAMF6 (ab224201), TIGIT (ab233404), CD34 (ab81289) (the above from Abcam, UK), mouse SLAMF6 (PA5-87823), NKG2D (PA5-102038) (the above from Thermofisher, USA), α-SMA (Sigma Aldrich, A5228), CCL2 (Invitrogen, MA5-17040), and CD155(PVR) (Biolegend, 337601), HA (Biolegend, USA), Strep-HRP(horse-radish peroxidase), StrepMAB-HRP (IBA, USA), AFP (FineTest, FNab00203) were reacted at 4°C for 15 hours. The next day, secondary antibodies were reacted, and development was performed on X-ray film using ECL (Pierce, USA). Anti-TM4SF5C-ter (epitope region of RKKQDTPH^197) and anti-TM4SF5EC2 (CLMNGEWGYHFEDTAGA^130) were custom-made at a professional antibody production company (Pro-Sci, Poway, CA, USA).
(a) Cell extracts were obtained after treating TM4SF5-non-expressing cells (SNU449Cp) and TM4SF5-expressing cells (SNU449T7) with vehicle (DMSO), ST-2-001, or an ST-2-001-based derivative drug at a concentration of 5 µM for 24 hours. (b) Cell extracts were obtained after treating SNU449Cp and SNU449T7 with DMSO, ST-2-001, ST-3-001, ST-3-006, ST-3-007, ST-3-010, or ST-3-011 at a concentration of 5 µM for 24 hours. (c) Cell extracts were obtained after treating SNU449Cp and SNU449T7 with DMSO, ST-2-001, ST-3-006, or ST-3-011 at the given concentrations for 24 hours. (a-c) Using the cell extracts obtained after the drug treatment, Western blotting was performed for signaling factors whose phosphorylation and activity increase in a TM4SF5-expression dependent manner.

[1] = 5 µM, 24 hours (FIG. 9a-b, blue-lined boxes)
[2] = given concentrations, 24 hours (FIG. 9c)

Row | Structure (SMILES) | phosphorylation of some signaling factors [1] | phosphorylation of some signaling factors [2]
1 | COc1ccc(-c2cc(-c3cccc(NC(C)=O)c3)no2)cc1 [ST-3-011, N-(3-(5-(4-methoxyphenyl)isoxazole-3-yl)phenyl)acetamide] | increased | increased
2 | COc1ccc(-c2cc(-c3ccc(NC(C)=O)cc3)no2)cc1 [ST-2-001, N-(4-(5-(4-methoxyphenyl)isoxazole-3-yl)phenyl)acetamide] | – | increased
3 | CC(=O)Nc1ccc(-c2cc(-c3ccc(F)cc3)on2)cc1 [ST-3-006, N-(4-(5-(4-fluorophenyl)isoxazole-3-yl)phenyl)acetamide] | increased | increased
